According to paper PMC12638379, “An innovative approach to development of new pyrazolylquinolin-2-one hybrids as dual EGFR and BRAF^V600E inhibitors” (Molecular Diversity, 2025):
Like-named read-outs stand apart in the source and are kept apart here.

Tested on: NCI 60 cancer cell lines
Experiment: NCI anticancer screening over a panel of 60 cancer cells, single concentration 10 µM
Assay type: cell-based, human
Conditions: Homo sapiens, read-out: % Growth Inhibition (GI %)
Procedure, shortened: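 Primary single-dose screen at 10 µM over the NCI panel of 60 human tumour cell lines (leukemia, CNS, lung, colon, kidney, ovary, breast, prostate). The standard NCI Developmental Therapeutics Program protocol was used.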

C/C(=N\Nc1ccc(C(=O)O)cc1)c1cnn(-c2cc(=O)[nH]c3ccccc23)c1C [Compound 4f, (E)-4-(2-(1-(5-methyl-1-(2-oxo-1,2-dihydroquinolin-4-yl)-1H-pyrazol-4-yl)ethylidene) hydrazineyl)benzoic acid]
inhibition at 10 µM (EKVX, Non-small cell lung cancer EKVX, 10 μM): < 5%
inhibition at 10 µM (HCC 2998, Colon cancer HCC-2998, 10 μM): < 5%
inhibition at 10 µM (HCT-15, Colon cancer HCT-15, 10 μM): < 5%
inhibition at 10 µM (HCT-116, Colon cancer HCT-116, 10 μM): < 5%
inhibition at 10 µM (HL-60, Leukemia HL-60(TB), 10 μM): < 5%
inhibition at 10 µM (HOP-62, Non-small cell lung cancer HOP-62, 10 μM): 8.55%
inhibition at 10 µM (HOP-92, Non-small cell lung cancer HOP-92, 10 μM): 79.8%
inhibition at 10 µM (HT-29, Colon cancer HT29, 10 μM): < 5%
inhibition at 10 µM (Hs-578T, Breast cancer HS 578T, 10 μM): 12.3%
inhibition at 10 µM (IGROV-1, Ovarian cancer IGROV1, 10 μM): < 5%
inhibition at 10 µM (K562, Leukemia K-562, 10 μM): < 5%
inhibition at 10 µM (KM12, Colon cancer KM12, 10 μM): < 5%
inhibition at 10 µM (LOX IMVI, Melanoma LOX IMVI, 10 μM): 10.8%
inhibition at 10 µM (Leukemia SR, 10 μM): 12.2%
inhibition at 10 µM (MCF7, Breast cancer MCF7, 10 μM): 5.99%
inhibition at 10 µM (MDA-MB-231, Breast cancer MDA-MB-231/ATCC, 10 μM): 12.5%
inhibition at 10 µM (MDA-MB-435, Melanoma MDA-MB-435, 10 μM): < 5%
inhibition at 10 µM (MDA-MB-468, Breast cancer MDA-MB-468, 10 μM): < 5%
inhibition at 10 µM (MOLT-4, Leukemia MOLT-4, 10 μM): < 5%
inhibition at 10 µM (Melanoma M14, 10 μM): 8.95%
inhibition at 10 µM (Melanoma MALM-3M, 10 μM): 9.22%
inhibition at 10 µM (NCI-H23, Non-small cell lung cancer NCI-H23, 10 μM): 7.19%
inhibition at 10 µM (NCI-H226, Non-small cell lung cancer NCI-H226, 10 μM): 10.9%
inhibition at 10 µM (NCI-H322M, Non-small cell lung cancer NCI-H322M, 10 μM): < 5%
inhibition at 10 µM (NCI-H460, Non-small cell lung cancer NCI-H460, 10 μM): < 5%
inhibition at 10 µM (NCI-H522, Non-small cell lung cancer NCI-H522, 10 μM): 13.9%
inhibition at 10 µM (NCI/ADR-RES, Ovarian cancer NCI/ADR-RES, 10 μM): < 5%
inhibition at 10 µM (OVCAR-3, Ovarian cancer OVCAR-3, 10 μM): < 5%
inhibition at 10 µM (OVCAR-4, Ovarian cancer OVCAR-4, 10 μM): 7.33%
inhibition at 10 µM (OVCAR-5, Ovarian cancer OVCAR-5, 10 μM): < 5%
inhibition at 10 µM (OVCAR-8, Ovarian cancer OVCAR-8, 10 μM): < 5%
inhibition at 10 µM (Prostate cancer PC-3, 10 μM): 12.4%
inhibition at 10 µM (RPMI-8226, Leukemia RPMI-8226, 10 μM): < 5%
inhibition at 10 µM (RXF 393, Renal cancer RXF 393, 10 μM): 11.1%
inhibition at 10 µM (SF-268, CNS Cancer SF-268, 10 μM): < 5%
inhibition at 10 µM (SF-295, CNS Cancer SF-295, 10 μM): < 5%
inhibition at 10 µM (SF-539, CNS Cancer SF-539, 10 μM): < 5%
inhibition at 10 µM (SK-MEL-2, Melanoma SK-MEL-2, 10 μM): < 5%
inhibition at 10 µM (SK-MEL-5, Melanoma SK-MEL-5, 10 μM): < 5%
inhibition at 10 µM (SK-MEL-28, Melanoma SK-MEL-28, 10 μM): < 5%
inhibition at 10 µM (SK-OV-3, Ovarian cancer SK-OV-3, 10 μM): < 5%
inhibition at 10 µM (SN12C, Renal cancer SN12C, 10 μM): < 5%
inhibition at 10 µM (SNB-19, CNS Cancer SNB-19, 10 μM): < 5%
inhibition at 10 µM (SNB-75, CNS Cancer SNB-75, 10 μM): 12.9%
inhibition at 10 µM (SW-620, Colon cancer SW-620, 10 μM): < 5%
inhibition at 10 µM (T47D, Breast cancer T-47D, 10 μM): < 5%
inhibition at 10 µM (TK-10, Renal cancer TK-10, 10 μM): < 5%
inhibition at 10 µM (U-251, CNS Cancer U251, 10 μM): < 5%
inhibition at 10 µM (UACC-62, Melanoma UACC-62, 10 μM): 6.43%
inhibition at 10 µM (UACC-257, Melanoma UACC-257, 10 μM): < 5%
inhibition at 10 µM (UO-31, Renal cancer UO-31, 10 μM): 45.2%
